In patent publication US20120207737A1, “MEDICAL UTILITY OF GLYCAN-BINDING PROTEINS AND GLYCANS” (UNIVERSITY OF ZURICH, priority 2009, published 2012):
Entries after “also recorded” stand apart in the source; their conditions may differ.

Experiments:
[1] = target: T1, Coprinopsis cinerea galectin CGL2, wild type (Genbank AAF34732) (Coprinopsis cinerea, UniProt Q9P4R8); test: Isothermal Titration Microcalorimetry (ITC), in vitro binding of C. cinerea galectin CGL2 to synthetic trisaccharide; conditions: 25° C.
T1 construct: amplifying the respective open reading frame from cDNA or available plasmids; made in house; host or cells: Escherichia coli BL21(DE3), vector pET24a
T1 sequence (Q9P4R8 whole entry): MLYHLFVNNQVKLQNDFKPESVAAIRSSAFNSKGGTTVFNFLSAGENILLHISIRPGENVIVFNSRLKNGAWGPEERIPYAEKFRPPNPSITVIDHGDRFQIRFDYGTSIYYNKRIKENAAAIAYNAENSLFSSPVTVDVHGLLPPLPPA
Description: The raw data is shown in the upper panel.
Bacterial cell pellets were resuspended in ice-cold phosphate-buffered saline (PBS) [30 mM Na-phosphate pH 7.3, 150 mM NaCl] containing 1 mM phenylmethylsulfonyl fluoride and ruptured using a French press. Cell debris was removed in two consecutive steps of centrifugation at 12000 g for 15 min and 27000 g for 30 min. The supernatant was incubated with lactosyl-sepharose at 4° C. for 1 h and CGL2 was finally eluted at room temperature in PBS containing 200 mM lactose. After size exclusion chromatography on Superose 6 10/300 GL (GE Healthcare) equilibrated in PBS, fractions containing the protein were pooled and concentrated using an Amicon Ultra-4 centrifugal filter device (Millipore) with a molecular weight cutoff of 10 kDa. Protein concentration was calculated by measuring the absorbance at 280 nm, assuming a relation of 1.25 mg mk^−1 to 1 unit absorbance at 280 nm for a path length of 1 cm. Conjugation of purified CGL2 to tetramethylrhodamine (TAMRA) (Molecular Probes) was performed as described in Walser, P. J. et al. (2005) Fungal Genet Biol 42, 293-305.
Experiments were performed with a VP-ITC isothermal titration calorimeter (Microcal, Mass., USA) at 25° C. using purified CGL2 (300 μM in TBS). Gal-β-1,4-Fuc-α-1,6-GlcNAc-β-O—C5H10-NH2 was dissolved in TBS at a concentration of 1.6 mM corrected based on purity estimate by ^1H-NMR (ca. 50-60%). The ligand was titrated into a cell containing the protein solution in 48 injections of 6 μl preceded by a single injection of 2 μl. All injections were performed at intervals of 3 min while stirring at 270 rpm. Experimental data were fitted to a theoretical titration curve using the MCS—ORIGIN software supplied by Microcal.

C. elegans = C. elegans toxicity plate assay (development L1 to L4 on lectin-expressing E. coli); type: in vivo, Caenorhabditis elegans; conditions: lectin-expressing E. coli cells as food source
Description: (§1) FIG. 1 is a bar chart showing the toxicity of various fungal lectins towards C. elegans. C. elegans wildtype (N2) and pmk-1 mutant worms were analysed for development from L1 to L4 on lectin-expressing bacteria as described in the Experimental Procedures. The y-coordinate is the fraction of worms reaching L4 in the presence of bacteria expressing the lectins on the X-coordinate. Fungal lectins analyzed included C. cinerea galectins CGL1 (Genbank AAF34731) and CGL2 (Genbank AAF34732), galectin-related lectin CGL3 (Genbank ABD64675) and lectin RedA (CCL2) (Genbank ACD88750), Xerocomus chrysenteron lectin XCL (Genbank AAL73235) and its ortholog TAP1 from Sordaria macrospora (Genbank CAH03681), Aleuria aurantia lectin AAL (Genbank BAA00451) and Marasmius oreades agglutinin MOA (Genbank AAL47680).
Plasmids for bacterial expression of fungal lectins were constructed by amplifying the respective open reading frame from cDNA or available plasmids and ligating the resulting fragment into pET24a (Invitrogen) using introduced restriction sites. […]
Quantitative data on the effect of CGL2 on C. elegans development was acquired by placing 50 to 100 newly hatched L1 larvae of the indicated genotypes on the plates. After 72 h, the fraction of animals that reached L4 stage was determined.

H. contortus = test: Haemonchus contortus toxicity assay (development L1 to L3, liquid, 96-well); type: in vivo; conditions: bacterivorous stages fed lectin-expressing E. coli
Description: as §1, with “FIG. 12” for “FIG. 1”, “towards H. contortus. The nematodes” for “towards C. elegans. C. elegans wildtype (N2) and pmk-1 mutant worms”, “to L3” for “to L4”, “reaching L3” for “reaching L4”, “cinerea galectin” for “cinerea galectins CGL1 (Genbank AAF34731) and”, “(Genbank ABD64675),” for “(Genbank ABD64675) and”
The toxicity towards the above-mentioned parasitic nematode was evaluated in a liquid assay using 96-well cell culture plates. H. contortus eggs were isolated from feces of an infected sheep and hatched on water-agar plates containing Kanamycin (50 μg/ml) and Amphotericin B (2.5 μg/ml). Approximately 30 L1 larvae were collected and transferred to each well, in a total volume of 150 μl 0.1× Earls solution. […] Plates were incubated at 28° C. in the dark, and percentage of larvae that developed to L3 were determined after 7 days.

[2] = tested on: C. elegans glycosylation mutants; test: Lectin sensitivity of C. elegans glycosylation mutants (development L1 to L4); type: in vivo, Caenorhabditis elegans; conditions: testing of C. elegans glycosylation mutants, forward genetic screen
Description: FIG. 4 is a graph showing the CGL2-sensitivity of various C. elegans glycosylation mutants. C. elegans mutants of the genotypes indicated in the X-coordinate were analysed for development from L1 to L4 on CGL2-expressing E. coli as described in the experimental procedures below. See Table 1 below for glycosylation processes encoded by the various C. elegans genes.
FIG. 8 is a bar graph illustrating the RedA(CCL2)-sensitivity of various C. elegans glycosylation mutants. C. elegans mutants of the indicated genotypes were analysed for development from L1 to L4 on RedA-expressing E. coli as described in the below experimental procedures. Mutants not analyzed yet are indicated as n.d. See Table 1 below for glycosylation processes encoded by the various C. elegans genes.
FIG. 9 is a bar graph illustrating the MOA-sensitivity test of various C. elegans glycosylation mutants. C. elegans mutants of the indicated genotypes were analysed for development from L1 to L4 on MOA-expressing E. coli as described in experimental procedures below. Mutants not analyzed yet are indicated as n.d. […]
FIG. 10 is a bar graph illustrating the AAL-sensitivity of various C. elegans glycosylation mutants. C. elegans mutants of the indicated genotypes were analysed for development from L1 to L4 on AAL-expressing E. coli as described in Experimental Procedures. […]

[3] = TBS, model of one ligand-binding site per protein monomer

CC(=O)N[C@H]1[C@H](OCCCCCN)O[C@H](CO[C@@H]2O[C@@H](C)[C@@H](O[C@@H]3O[C@H](CO)[C@H](O)[C@H](O)[C@H]3O)[C@@H](O)[C@@H]2O)[C@@H](O)[C@@H]1O [Gal-β-1,4-Fuc-α-1,6-GlcNAc-β-O—C5H10—NH2]
entropy of binding (TΔS) ([1]; TBS): -3.31 kcal/mol
enthalpy change (ΔH) [1, 3]: -8.85 ± 0.1 kcal/mol
number of binding sites (N) [1, 3]: 0.977±0.004
Kd ([1]; purified CGL2 300 μM in TBS, ligand 1.6 mM, one ligand-binding site per protein monomer, read-out: dissociation constant (Kd)): 86.9 µM

B1: AAL: β-propeller lectin from the ascomycete Aleuria aurantia (Genbank BAA00451) (protein, UniProt P18891 2-313, looked up)
Fucose-specific lectin: PTEFLYTSKIAAISWAATGGRQQRVYFQDLNGKIREAQRGGDNPWTGGSSQNVIGEAKLFSPLAAVTWKSAQGIQIRVYCVNKDNILSEFVYDGSKWITGQLGSVGVKVGSNSKLAALQWGGSESAPPNIRVYYQKSNGSGSSIHEYVWSGKWTAGASFGSTVPGTGIGATAIGPGRLRIYYQATDNKIREHCWDSNSWYVGGFSASASAGVSIAAISWGSTPNIRVYWQKGREELYEAAYGGSWNTPGQIKDASRPTPSLPDTFIAANSSGNIDISVFFQASGVSLQQWQWISGKGWSIGAVVPTGTPAGW
toxicity towards C. elegans (C. elegans): toxic
toxicity towards H. contortus (H. contortus): toxic
glycan that mediates nematotoxicity / is recognized in C. elegans [2]: binds terminal Fuc on a yet to be identified nematode glycoconjugate; also recorded: dependent on GDP-fucose biosynthesis
